Earlier results as cited in patent US9884022B2, “Controlled release pharmaceutical compositions of tapentadol” (LUPIN LIMITED, priority 2010, dated 2018).

Details: background statement on immediate release compositions

For CCC(c1cccc(O)c1)C(C)CN(C)C (stereo not shown) [tapentadol, 3-(3-dimethylamino-1-ethyl-2-methyl-propyl) phenol], the half life is given as 4 h.
